According to the NIST ThermoML archive (doi:10.1021/je0301794):

Columns and labels:
[1] = excess molar enthalpy (molar enthalpy of mixing); xn = mol fraction of the nth substance listed; details: 318.15 K, 101.3 kPa, Liquid
[2] = xn = mol fraction of the nth substance listed; details: 101.3 kPa, Liquid

COC(=O)OC [dimethyl carbonate] + CCCCCC
[1]
Details | excess molar enthalpy [kcal/mol]
x1 = 0.088 | 0.171
x1 = 0.1762 | 0.292
x1 = 0.2418 | 0.369
x1 = 0.3259 | 0.432
x1 = 0.4027 | 0.472
x1 = 0.4703 | 0.49
x1 = 0.5162 | 0.495
x1 = 0.5554 | 0.492
x1 = 0.6261 | 0.477
x1 = 0.6776 | 0.455
x1 = 0.7263 | 0.421
x1 = 0.7728 | 0.381
x1 = 0.8189 | 0.323
x1 = 0.866 | 0.262
x1 = 0.9005 | 0.204
x1 = 0.9393 | 0.13
x1 = 0.9822 | 0.0471
x1 = 1 | 0

[2]
Details | mass density [kg/m3]
293.15 K, x1 = 0.0722 | 677.3
293.15 K, x1 = 0.1448 | 696.6
293.15 K, x1 = 0.2286 | 720.8
293.15 K, x1 = 0.3026 | 744
293.15 K, x1 = 0.4102 | 780.8
293.15 K, x1 = 0.5062 | 817
293.15 K, x1 = 0.6026 | 857.1
293.15 K, x1 = 0.7052 | 904
293.15 K, x1 = 0.7974 | 950.5
293.15 K, x1 = 0.901 | 1008.3
293.15 K, x1 = 0.9506 | 1038.5
293.15 K, x1 = 1 | 1070
298.15 K, x1 = 0.082 | 674.9
298.15 K, x1 = 0.1269 | 686.7
298.15 K, x1 = 0.2131 | 710.9
298.15 K, x1 = 0.3197 | 744.1
298.15 K, x1 = 0.3787 | 764
298.15 K, x1 = 0.4712 | 797.6
298.15 K, x1 = 0.5121 | 813.4
298.15 K, x1 = 0.6067 | 852.6
298.15 K, x1 = 0.6987 | 894.5
298.15 K, x1 = 0.842 | 967.9
298.15 K, x1 = 0.9248 | 1015.9
298.15 K, x1 = 0.9615 | 1038.7
298.15 K, x1 = 1 | 1063.5
303.15 K, x1 = 0.0468 | 661.4
303.15 K, x1 = 0.0991 | 674.5
303.15 K, x1 = 0.1951 | 700.4
303.15 K, x1 = 0.295 | 730.4
303.15 K, x1 = 0.3832 | 759.5
303.15 K, x1 = 0.4865 | 797.1
303.15 K, x1 = 0.5899 | 838.7
303.15 K, x1 = 0.696 | 886.3
303.15 K, x1 = 0.7947 | 935.5
303.15 K, x1 = 0.8939 | 990.5
303.15 K, x1 = 0.9436 | 1020.3
303.15 K, x1 = 1 | 1056.5
313.15 K, x1 = 0.0495 | 652.7
313.15 K, x1 = 0.1 | 665.2
313.15 K, x1 = 0.2092 | 694.5
313.15 K, x1 = 0.3093 | 724.6
313.15 K, x1 = 0.4043 | 756.1
313.15 K, x1 = 0.4941 | 788.8
313.15 K, x1 = 0.6052 | 833.6
313.15 K, x1 = 0.7063 | 879.2
313.15 K, x1 = 0.8046 | 928.6
313.15 K, x1 = 0.9014 | 982.5
313.15 K, x1 = 0.9497 | 1011.6
313.15 K, x1 = 1 | 1043.4
318.15 K, x1 = 0.0773 | 654.9
318.15 K, x1 = 0.1163 | 664.6
318.15 K, x1 = 0.1621 | 676.6
318.15 K, x1 = 0.2689 | 706.8
318.15 K, x1 = 0.3288 | 725.3
318.15 K, x1 = 0.4097 | 752.4
318.15 K, x1 = 0.4753 | 776
318.15 K, x1 = 0.5256 | 795.2
318.15 K, x1 = 0.5452 | 803.1
318.15 K, x1 = 0.5879 | 820.6
318.15 K, x1 = 0.6449 | 845.2
318.15 K, x1 = 0.6976 | 869.3
318.15 K, x1 = 0.7615 | 900.4
318.15 K, x1 = 0.8039 | 922.2
318.15 K, x1 = 0.8422 | 942.9
318.15 K, x1 = 0.8808 | 964.3
318.15 K, x1 = 0.9311 | 993.8
318.15 K, x1 = 0.9657 | 1015.1
318.15 K, x1 = 1 | 1036.9
